Reference: US11505534B2, “Highly diastereoselective construction of the 4,5-spirocycle via palladium-catalyzed intramolecular alkenylation” (The University of Chicago, priority 2017, dated 2022)

Assays:
[1] = system: interleukin-2 (IL-2) production in a B cell lymphoma cell line; assay: suppression of interleukin-2 (IL-2) production in a B cell lymphoma cell line; format: cell-based; conditions: 100 micromolar (μM) concentrations of the compounds, preliminary biological testing
Source text: In some embodiments, the presently disclosed subject matter provides phainanoid analogs, as well as compounds that can be used as synthetic intermediates in preparing phainanoids and phainanoid analogs. In particular, the presently disclosed phainanoid analogs include the benzofuran-based 4,5-spirocycle with the strained exocyclic olefin motif present in the “western” part of the natural product phainanoids. Given the inclusion of this motif, it is believed that the presently disclosed phainanoid analogs can be useful as novel immunosuppressive agents, e.g., for the treatment of diseases characterized by an aberrant immune response, such as autoimmune and/or inflammatory diseases, as well as during transplant operations.

Row | melting point | Compound | immunosuppressive activity (suppression of interleukin-2 (IL-2) production) [1]
1 |  | C[C@@]12CCCC=C1[C@@]1(C2)Oc2ccccc2C1=O [Compound 7] | complete suppression
2 | 174 to 177 °C | C[C@]12C[C@@]3(Oc4ccccc4C3=O)C1=CC[C@]1(C)c3ccccc3CC[C@@H]21 [Compound 8] | complete suppression
3 |  | C[C@]1(/C=C2\Oc3ccccc3C2=O)[C@@H](O)CC[C@]2(C)c3ccccc3CC[C@@H]12 [Compound 25] | complete suppression
